ChEMBL document CHEMBL3351724, “Human α1-adrenoceptor subtype selectivity of substituted homobivalent 4-aminoquinolines” (Bioorg Med Chem, 2014)

How the values were obtained:
[1] = target: T1, 5-hydroxytryptamine receptor 1A (Homo sapiens, UniProt P08908); experiment: Binding affinity to human 5HT1A receptor transfected in COS1 cells assessed as compound required to occupy 50% of receptor; assay type: cell-based, COS-1
T1 sequence (P08908 whole entry): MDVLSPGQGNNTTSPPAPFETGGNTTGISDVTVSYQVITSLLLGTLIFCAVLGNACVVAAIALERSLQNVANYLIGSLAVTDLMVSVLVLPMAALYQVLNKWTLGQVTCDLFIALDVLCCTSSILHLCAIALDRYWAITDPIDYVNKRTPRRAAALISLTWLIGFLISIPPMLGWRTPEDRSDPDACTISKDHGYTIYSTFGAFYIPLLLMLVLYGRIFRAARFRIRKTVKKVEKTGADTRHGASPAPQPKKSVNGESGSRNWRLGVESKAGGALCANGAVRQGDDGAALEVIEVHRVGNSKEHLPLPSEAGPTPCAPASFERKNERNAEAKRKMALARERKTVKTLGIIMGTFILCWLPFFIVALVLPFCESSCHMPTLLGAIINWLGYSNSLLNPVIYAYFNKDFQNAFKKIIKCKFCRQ

[2] = target: T2, Alpha-1D adrenergic receptor (Homo sapiens, UniProt P25100); experiment: Binding affinity to human alpha1D adrenergic receptor transfected in COS1 cells assessed as compound required to occupy 50% of receptor; assay type: cell-based, COS-1
T2 sequence (P25100 whole entry): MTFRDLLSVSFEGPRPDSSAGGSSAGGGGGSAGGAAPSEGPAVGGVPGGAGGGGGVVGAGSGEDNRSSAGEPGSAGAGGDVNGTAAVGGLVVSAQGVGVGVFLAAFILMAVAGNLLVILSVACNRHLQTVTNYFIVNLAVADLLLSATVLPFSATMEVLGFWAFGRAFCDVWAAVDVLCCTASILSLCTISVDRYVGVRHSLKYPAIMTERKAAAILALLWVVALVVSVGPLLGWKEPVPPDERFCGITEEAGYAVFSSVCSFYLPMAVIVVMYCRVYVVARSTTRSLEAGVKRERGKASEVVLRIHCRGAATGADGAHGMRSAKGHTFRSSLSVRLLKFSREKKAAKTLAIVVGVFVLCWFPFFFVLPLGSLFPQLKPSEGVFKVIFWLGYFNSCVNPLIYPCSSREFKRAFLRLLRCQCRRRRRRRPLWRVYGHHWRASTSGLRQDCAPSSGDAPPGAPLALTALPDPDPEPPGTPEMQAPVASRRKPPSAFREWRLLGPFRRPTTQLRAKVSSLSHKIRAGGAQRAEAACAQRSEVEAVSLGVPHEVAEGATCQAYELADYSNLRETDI

[3] = target: T3, Alpha-1A adrenergic receptor (Homo sapiens, UniProt P35348); experiment: Displacement of [3H]-prazosin from human alpha1A adrenergic receptor transfected in COS1 cells; assay type: cell-based, COS-1
T3 sequence (P35348 whole entry): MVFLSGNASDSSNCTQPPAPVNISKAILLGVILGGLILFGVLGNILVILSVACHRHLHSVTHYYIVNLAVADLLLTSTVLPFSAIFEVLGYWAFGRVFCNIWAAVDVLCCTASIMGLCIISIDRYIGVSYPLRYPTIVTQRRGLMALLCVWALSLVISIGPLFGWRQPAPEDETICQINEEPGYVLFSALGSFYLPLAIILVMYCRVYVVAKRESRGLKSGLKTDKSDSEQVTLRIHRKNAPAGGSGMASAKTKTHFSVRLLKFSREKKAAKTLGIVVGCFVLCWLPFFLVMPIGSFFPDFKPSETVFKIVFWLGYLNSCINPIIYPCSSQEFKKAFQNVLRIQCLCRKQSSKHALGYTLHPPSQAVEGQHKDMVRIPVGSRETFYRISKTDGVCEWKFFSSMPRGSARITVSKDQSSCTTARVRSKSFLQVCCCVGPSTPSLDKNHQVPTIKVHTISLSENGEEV

[4] = target: T3, Alpha-1A adrenergic receptor; experiment: Binding affinity to human alpha1A adrenergic receptor transfected in COS1 cells assessed as compound required to occupy 50% of receptor; assay type: cell-based, COS-1
[5] = target: T1, 5-hydroxytryptamine receptor 1A; experiment: Displacement of [3H]8-OH-DPAT from human 5HT1A receptor transfected in COS1 cells; assay type: cell-based, COS-1
[6] = target: T4, Alpha-1B adrenergic receptor (Homo sapiens, UniProt P35368); experiment: Binding affinity to human alpha1B adrenergic receptor transfected in COS1 cells assessed as compound required to occupy 50% of receptor; assay type: cell-based, COS-1
T4 sequence (P35368 whole entry): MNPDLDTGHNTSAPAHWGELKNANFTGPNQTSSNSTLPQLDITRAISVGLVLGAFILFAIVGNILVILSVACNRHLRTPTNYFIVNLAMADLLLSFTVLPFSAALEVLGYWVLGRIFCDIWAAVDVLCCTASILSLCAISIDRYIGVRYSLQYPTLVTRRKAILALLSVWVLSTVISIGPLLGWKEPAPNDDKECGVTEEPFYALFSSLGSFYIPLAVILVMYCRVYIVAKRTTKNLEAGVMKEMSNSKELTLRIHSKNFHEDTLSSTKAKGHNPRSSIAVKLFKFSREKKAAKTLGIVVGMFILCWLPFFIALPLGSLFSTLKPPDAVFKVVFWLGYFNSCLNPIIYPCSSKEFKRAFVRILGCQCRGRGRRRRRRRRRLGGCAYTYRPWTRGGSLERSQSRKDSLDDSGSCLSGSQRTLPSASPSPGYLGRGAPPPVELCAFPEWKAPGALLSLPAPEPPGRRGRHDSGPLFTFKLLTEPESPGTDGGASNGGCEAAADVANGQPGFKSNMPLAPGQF

[7] = target: T4, Alpha-1B adrenergic receptor; experiment: Displacement of [3H]-prazosin from human alpha1B adrenergic receptor transfected in COS1 cells; assay type: cell-based, COS-1
[8] = target: T2, Alpha-1D adrenergic receptor; experiment: Displacement of [3H]-prazosin from human alpha1D adrenergic receptor transfected in COS1 cells; assay type: cell-based, COS-1
Homo sapiens [9] = species: Homo sapiens; experiment: Selectivity ratio of Ki for human alpha1B adrenergic receptor to Ki for human alpha1A adrenergic receptor
Homo sapiens [10] = species: Homo sapiens; experiment: Selectivity ratio of Ki for human 5HT1A receptor to Ki for human alpha1A adrenergic receptor
Homo sapiens [11] = species: Homo sapiens; experiment: Selectivity ratio of Ki for human alpha1D adrenergic receptor to Ki for human alpha1A adrenergic receptor

SMILES	Ki [1] [nM]	Ki [2] [nM]	Ki [3] [nM]	Ki [4] [nM]	Ki [5] [nM]	Ki [6] [nM]	Ki [7] [nM]	Ki [8] [nM]	Ratio Ki (Homo sapiens [9])	Ratio Ki (Homo sapiens [10])	Ratio Ki (Homo sapiens [11])
COc1ccc2nccc(NCCCCCCCNc3ccnc4ccc(OC)cc34)c2c1	1380	372	316	316	1380	148	148	372	–	–	–
COc1ccc2c(NCCCCCCCNc3ccnc4cc(OC)ccc34)ccnc2c1	2820	229	257	257	2820	35	34.7	229	–	–	–
Cc1ccc2c(NCCNc3ccnc4cc(C)ccc34)ccnc2c1	3470	204	120	120	3470	48	47.9	204	–	–	–
Cc1ccc2nccc(NCCNc3ccnc4ccc(C)cc34)c2c1	617	490	135	135	617	19	19.1	490	–	–	–
COc1cccc2c(NCCCCCCCNc3ccnc4c(OC)cccc34)ccnc12	603	759	74.1	74	603	155	155	759	–	–	–
Cc1ccc2nccc(NCCCCCCCNc3ccnc4ccc(C)cc34)c2c1	1100	479	617	617	1100	151	151	479	–	–	–
Cc1ccc2c(NCCCCCCCNc3ccnc4cc(C)ccc34)ccnc2c1	1260	490	112	112	1260	51	51.3	490	–	–	–
c1ccc2c(NCCNc3ccnc4ccccc34)ccnc2c1	2290	331	26.3	26	2290	28	28.2	331	–	–	–
Cc1cccc2c(NCCNc3ccnc4c(C)cccc34)ccnc12	1170	479	7.41	7	1170	40	39.8	479	6	168	68
c1ccc2c(NCCCCCCCNc3ccnc4ccccc34)ccnc2c1	832	309	126	126	832	148	148	309	–	–	–
COc1cccc2c(NCCNc3ccnc4c(OC)cccc34)ccnc12	3090	2000	195	195	3090	324	324	2000	–	–	–
COc1ccc2c(NCCNc3ccnc4cc(OC)ccc34)ccnc2c1	891	214	69.2	69	891	50	50.1	214	–	–	–
